Patent US9492471B2, “Methods of treating a disease or disorder associated with Bruton'S Tyrosine Kinase” (Celgene Avilomics Research, Inc., priority 2013, dated 2016)
Read-outs that look alike come from different tables or passages of the source.

Tests used:
Assay in all cases: HotSpot kinase profiling
Type in all cases: biochemical
ACK1 = target: T1, ACK1 (Homo sapiens, UniProt Q07912)
T1 construct: purchased Reaction Biology Corp
Outline: (§1)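 Radio-isotope P81 filtration format. Substrate + required cofactors in reaction buffer, kinase added, 2 h RT. Stop, wash with 0.1% phosphoric acid, detect. % inhibition vs DMSO; mean of duplicates where repeated.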

ALK4/ACVR1B = target: T2, ALK4/ACVR1B (Homo sapiens, UniProt P36896)
T2 construct: purchased Reaction Biology Corp
T2 sequence (P36896 24-505): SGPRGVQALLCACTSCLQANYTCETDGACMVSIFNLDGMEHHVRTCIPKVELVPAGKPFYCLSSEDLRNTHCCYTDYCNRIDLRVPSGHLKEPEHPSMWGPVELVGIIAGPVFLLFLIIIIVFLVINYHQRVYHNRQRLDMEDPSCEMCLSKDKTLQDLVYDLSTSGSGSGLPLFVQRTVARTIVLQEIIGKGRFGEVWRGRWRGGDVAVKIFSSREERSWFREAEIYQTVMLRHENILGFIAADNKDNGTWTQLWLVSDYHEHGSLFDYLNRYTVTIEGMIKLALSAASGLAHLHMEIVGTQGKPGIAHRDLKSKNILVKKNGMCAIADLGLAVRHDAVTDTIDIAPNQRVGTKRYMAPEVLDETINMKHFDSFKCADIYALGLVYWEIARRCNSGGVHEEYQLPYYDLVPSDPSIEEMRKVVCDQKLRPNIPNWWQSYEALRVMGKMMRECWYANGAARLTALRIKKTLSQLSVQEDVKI
Outline: as §1

EPHA7 = target: T3, EPHA7 (Homo sapiens, UniProt Q15375)
T3 construct: purchased Reaction Biology Corp
T3 sequence (Q15375 28-998): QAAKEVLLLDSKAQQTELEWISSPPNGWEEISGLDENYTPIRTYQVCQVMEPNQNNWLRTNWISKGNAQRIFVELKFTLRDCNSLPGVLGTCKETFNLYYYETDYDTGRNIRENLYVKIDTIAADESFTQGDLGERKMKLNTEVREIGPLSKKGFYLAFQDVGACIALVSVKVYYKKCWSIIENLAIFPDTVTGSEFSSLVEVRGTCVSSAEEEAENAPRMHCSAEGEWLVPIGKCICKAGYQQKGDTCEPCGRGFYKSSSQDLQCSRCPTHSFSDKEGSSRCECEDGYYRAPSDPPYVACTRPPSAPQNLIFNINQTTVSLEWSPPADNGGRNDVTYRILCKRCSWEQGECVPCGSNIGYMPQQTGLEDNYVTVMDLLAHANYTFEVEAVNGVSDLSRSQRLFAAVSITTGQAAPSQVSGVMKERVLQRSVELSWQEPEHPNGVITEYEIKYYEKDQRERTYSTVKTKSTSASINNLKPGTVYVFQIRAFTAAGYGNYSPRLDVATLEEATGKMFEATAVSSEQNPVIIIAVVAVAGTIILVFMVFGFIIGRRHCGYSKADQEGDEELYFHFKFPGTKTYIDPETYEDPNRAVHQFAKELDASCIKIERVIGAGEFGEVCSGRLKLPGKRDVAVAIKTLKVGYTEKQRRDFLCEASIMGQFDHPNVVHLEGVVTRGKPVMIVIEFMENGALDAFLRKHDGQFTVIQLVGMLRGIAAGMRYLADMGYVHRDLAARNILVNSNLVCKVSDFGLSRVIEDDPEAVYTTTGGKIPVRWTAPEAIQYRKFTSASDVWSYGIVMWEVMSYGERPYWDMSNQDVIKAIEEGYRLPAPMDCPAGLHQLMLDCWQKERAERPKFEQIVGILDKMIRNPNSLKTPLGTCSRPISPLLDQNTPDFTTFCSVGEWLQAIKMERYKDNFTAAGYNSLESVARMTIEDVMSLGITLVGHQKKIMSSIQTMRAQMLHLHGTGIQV
Outline: as §1

GRK1 = target: T4, GRK1 (Homo sapiens, UniProt Q15835)
T4 construct: purchased Reaction Biology Corp
T4 sequence (Q15835 1-563): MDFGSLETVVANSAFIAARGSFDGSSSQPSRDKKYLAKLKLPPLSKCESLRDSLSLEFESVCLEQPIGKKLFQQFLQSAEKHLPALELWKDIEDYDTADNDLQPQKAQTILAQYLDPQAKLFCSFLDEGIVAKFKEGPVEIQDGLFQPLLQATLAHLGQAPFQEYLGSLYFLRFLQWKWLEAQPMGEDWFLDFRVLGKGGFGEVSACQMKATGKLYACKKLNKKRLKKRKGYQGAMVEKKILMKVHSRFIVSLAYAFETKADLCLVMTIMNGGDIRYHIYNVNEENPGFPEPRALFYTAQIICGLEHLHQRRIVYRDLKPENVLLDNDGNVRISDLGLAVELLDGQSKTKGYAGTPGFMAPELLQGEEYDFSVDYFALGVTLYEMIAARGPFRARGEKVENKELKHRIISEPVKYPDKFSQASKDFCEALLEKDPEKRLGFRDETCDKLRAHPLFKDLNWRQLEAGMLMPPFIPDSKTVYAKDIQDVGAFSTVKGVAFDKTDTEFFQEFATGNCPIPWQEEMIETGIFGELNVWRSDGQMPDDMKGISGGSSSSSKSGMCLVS
Outline: as §1

JNK1 = target: T5, JNK1 (Homo sapiens, UniProt P45983)
T5 construct: purchased Reaction Biology Corp
T5 sequence (P45983 whole entry): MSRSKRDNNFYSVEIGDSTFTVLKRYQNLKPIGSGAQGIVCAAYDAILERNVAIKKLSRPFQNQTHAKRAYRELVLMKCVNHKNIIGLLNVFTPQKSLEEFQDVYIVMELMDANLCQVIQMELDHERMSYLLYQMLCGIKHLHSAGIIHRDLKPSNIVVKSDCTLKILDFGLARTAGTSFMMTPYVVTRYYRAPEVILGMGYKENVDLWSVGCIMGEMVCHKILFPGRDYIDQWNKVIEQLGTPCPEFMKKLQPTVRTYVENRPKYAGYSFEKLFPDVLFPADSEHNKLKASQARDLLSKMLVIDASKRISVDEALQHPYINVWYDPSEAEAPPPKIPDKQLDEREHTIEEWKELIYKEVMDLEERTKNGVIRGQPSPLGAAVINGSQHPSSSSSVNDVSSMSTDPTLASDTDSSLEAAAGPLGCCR
Outline: as §1

MARK3 = target: T6, MARK3 (Homo sapiens, UniProt P27448)
T6 construct: purchased Reaction Biology Corp
T6 sequence (P27448 whole entry): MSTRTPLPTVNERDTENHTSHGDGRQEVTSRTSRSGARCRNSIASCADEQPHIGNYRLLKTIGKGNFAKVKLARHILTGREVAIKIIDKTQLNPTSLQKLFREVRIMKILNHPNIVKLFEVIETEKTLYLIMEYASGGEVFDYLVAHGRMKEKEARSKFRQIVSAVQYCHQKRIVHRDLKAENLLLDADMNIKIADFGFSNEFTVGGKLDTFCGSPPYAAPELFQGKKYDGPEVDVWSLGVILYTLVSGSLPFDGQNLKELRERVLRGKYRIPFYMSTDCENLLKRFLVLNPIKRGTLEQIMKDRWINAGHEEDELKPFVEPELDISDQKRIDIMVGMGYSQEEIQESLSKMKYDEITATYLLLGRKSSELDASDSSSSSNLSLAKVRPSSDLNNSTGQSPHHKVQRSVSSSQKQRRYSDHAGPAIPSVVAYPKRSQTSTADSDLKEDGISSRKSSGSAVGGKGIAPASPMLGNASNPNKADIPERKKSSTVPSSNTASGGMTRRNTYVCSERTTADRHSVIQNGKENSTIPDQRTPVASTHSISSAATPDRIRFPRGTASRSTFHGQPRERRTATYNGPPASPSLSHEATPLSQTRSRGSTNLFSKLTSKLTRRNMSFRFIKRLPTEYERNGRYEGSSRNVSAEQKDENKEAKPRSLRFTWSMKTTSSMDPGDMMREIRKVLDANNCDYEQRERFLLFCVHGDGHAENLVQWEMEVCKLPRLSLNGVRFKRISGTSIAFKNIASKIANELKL
Outline: as §1

MNK2 = target: T7, MNK2 (Homo sapiens, UniProt Q9HBH9)
T7 construct: purchased Reaction Biology Corp
T7 sequence (Q9HBH9 whole entry): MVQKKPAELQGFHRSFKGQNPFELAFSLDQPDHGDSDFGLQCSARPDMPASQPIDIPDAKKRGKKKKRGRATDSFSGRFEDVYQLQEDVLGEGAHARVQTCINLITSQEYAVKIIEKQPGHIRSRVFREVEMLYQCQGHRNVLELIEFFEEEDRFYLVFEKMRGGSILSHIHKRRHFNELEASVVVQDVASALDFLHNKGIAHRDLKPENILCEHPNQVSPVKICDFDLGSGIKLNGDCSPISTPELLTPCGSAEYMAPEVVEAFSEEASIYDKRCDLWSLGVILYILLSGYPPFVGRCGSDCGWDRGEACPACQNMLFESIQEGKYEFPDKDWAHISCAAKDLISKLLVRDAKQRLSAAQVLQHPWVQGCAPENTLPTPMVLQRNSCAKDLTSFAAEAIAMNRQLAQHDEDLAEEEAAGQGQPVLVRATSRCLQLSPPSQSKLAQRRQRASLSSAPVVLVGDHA
Outline: as §1

TBK1 = target: T8, TBK1 (Homo sapiens, UniProt Q9UHD2)
T8 construct: purchased Reaction Biology Corp
T8 sequence (Q9UHD2 1-729): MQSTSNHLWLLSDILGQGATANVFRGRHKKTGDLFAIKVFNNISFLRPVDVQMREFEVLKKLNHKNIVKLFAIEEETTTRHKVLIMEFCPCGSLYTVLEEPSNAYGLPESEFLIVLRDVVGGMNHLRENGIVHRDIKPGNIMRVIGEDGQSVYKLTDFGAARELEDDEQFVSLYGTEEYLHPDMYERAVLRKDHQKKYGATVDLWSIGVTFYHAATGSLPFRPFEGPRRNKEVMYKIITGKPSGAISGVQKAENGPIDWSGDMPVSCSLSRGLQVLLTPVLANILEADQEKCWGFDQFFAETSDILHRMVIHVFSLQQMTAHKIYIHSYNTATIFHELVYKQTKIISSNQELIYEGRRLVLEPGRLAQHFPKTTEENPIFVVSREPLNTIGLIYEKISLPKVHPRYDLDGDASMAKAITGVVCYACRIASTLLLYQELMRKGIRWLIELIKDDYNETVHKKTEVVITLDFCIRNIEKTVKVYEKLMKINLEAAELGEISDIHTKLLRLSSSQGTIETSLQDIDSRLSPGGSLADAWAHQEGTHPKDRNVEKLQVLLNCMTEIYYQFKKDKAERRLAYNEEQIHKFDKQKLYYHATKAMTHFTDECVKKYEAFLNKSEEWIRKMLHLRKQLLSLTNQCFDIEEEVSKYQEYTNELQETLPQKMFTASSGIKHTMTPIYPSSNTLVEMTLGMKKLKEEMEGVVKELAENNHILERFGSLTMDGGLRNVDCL
Outline: as §1

[1] = read-out: % Enzyme Activity (relative to DMSO controls) Run 1
[2] = read-out: % Enzyme Activity (relative to DMSO controls) Run 2

T1 sequence (Q07912 whole entry): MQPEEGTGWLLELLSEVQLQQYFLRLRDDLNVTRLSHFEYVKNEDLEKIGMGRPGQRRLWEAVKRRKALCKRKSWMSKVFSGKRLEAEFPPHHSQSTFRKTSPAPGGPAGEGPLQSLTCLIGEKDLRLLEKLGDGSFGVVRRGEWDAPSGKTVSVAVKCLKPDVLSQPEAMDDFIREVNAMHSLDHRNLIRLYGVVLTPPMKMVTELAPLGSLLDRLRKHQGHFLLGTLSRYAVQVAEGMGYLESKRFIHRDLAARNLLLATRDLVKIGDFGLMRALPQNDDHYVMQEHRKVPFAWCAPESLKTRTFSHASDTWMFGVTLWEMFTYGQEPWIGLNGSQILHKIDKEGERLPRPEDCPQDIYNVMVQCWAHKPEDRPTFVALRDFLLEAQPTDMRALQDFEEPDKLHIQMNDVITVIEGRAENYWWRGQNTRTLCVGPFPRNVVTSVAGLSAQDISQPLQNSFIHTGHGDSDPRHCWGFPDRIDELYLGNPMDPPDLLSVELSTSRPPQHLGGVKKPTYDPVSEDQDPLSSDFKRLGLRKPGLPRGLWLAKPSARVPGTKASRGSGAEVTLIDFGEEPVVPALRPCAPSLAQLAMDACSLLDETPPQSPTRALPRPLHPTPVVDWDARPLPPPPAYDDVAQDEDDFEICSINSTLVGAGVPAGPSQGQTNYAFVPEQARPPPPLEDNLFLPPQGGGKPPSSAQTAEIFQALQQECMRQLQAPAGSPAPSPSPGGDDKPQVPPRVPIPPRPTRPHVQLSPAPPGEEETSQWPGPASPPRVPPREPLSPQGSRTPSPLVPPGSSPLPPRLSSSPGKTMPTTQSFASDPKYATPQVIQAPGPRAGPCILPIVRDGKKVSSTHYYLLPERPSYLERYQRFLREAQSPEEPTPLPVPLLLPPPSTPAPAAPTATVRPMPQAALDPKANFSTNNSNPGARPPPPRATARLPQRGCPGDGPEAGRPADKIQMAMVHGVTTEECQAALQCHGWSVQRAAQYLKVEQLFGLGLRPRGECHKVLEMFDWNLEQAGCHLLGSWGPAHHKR

Q: What does the source list for C=CC(=O)Nc1cccc(Nc2nc(Nc3ccc(OCCOC)c(F)c3)ncc2F)c1 [Compound 2]?
A: inhibition at 3 µM (ACK1): 77.5%; remaining activity at 3 µM (ACK1; [1]): 22.6%; remaining activity at 3 µM (ACK1; [2]): 22.5%; inhibition at 3 µM (ALK4/ACVR1B): -42.2%; remaining activity at 3 µM (ALK4/ACVR1B; [1]): 141%; remaining activity at 3 µM (ALK4/ACVR1B; [2]): 144%; inhibition at 3 µM (EPHA7): 37.9%; remaining activity at 3 µM (EPHA7; [1]): 60%; remaining activity at 3 µM (EPHA7; [2]): 64.1%; inhibition at 3 µM (GRK1): -3.47%; remaining activity at 3 µM (GRK1; [1]): 104%; remaining activity at 3 µM (GRK1; [2]): 103%; inhibition at 3 µM (JNK1): 12.1%; remaining activity at 3 µM (JNK1; [1]): 88.1%; remaining activity at 3 µM (JNK1; [2]): 87.7%; inhibition at 3 µM (MARK3): -0.92%; remaining activity at 3 µM (MARK3; [1]): 101%; remaining activity at 3 µM (MARK3; [2]): 100%; inhibition at 3 µM (MNK2): 16.9%; remaining activity at 3 µM (MNK2; [1]): 83%; remaining activity at 3 µM (MNK2; [2]): 83.2%; inhibition at 3 µM (TBK1): 41.3%; remaining activity at 3 µM (TBK1; [1]): 58.1%; remaining activity at 3 µM (TBK1; [2]): 59.2%
